The record followed here is PMC7395821 (Antiviral Research, 2020).

For data set [1], the system named is eGFP-JEV. In words: eGFP-JEV-based HTS assay in Huh7 cells. It is filed as cell-based, Japanese encephalitis virus. Particulars: 96-well, cytotoxic and false positive drugs excluded.
Data set [2] deals with eGFP-JEV. In words: eGFP expression in eGFP-JEV infected BHK-21 cells. It is filed as cell-based, Japanese encephalitis virus. Particulars: BHK-21, eGFP-JEV MOI 0.1, two-fold dilutions, maximum 3 μM, 72 hpi.
Data set [3] has as its system WT-JEV. In words: Antiviral assay of WT-JEV in Huh7 cells, viral titer by plaque assay. As to conditions: for EC50: Japanese encephalitis virus, Huh-7, read-out: EC50 (50% reduction of viral titer); for SI (selective index, ratio of CC50 to EC50): Huh7 cells.
Data set [4] can be described thus: Cytotoxicity assay. Format: cell-based. Particulars: human, Huh7 cells.
In data set [5] the test system is JEV genome RNA. Briefly: Real-time RT-PCR of viral RNA in WT-JEV infected Huh7 cells. Format: cell-based, Japanese encephalitis virus. As to conditions: WT-JEV MOI 0.5, various dosages, qRT-PCR at 48 hpi. (In general: In qPCR the cycle at which signal appears reflects the starting amount.)
Data set [6] relates to WT-JEV. In words: Time-of-addition assay. Format: cell-based, Japanese encephalitis virus. Particulars: Huh7, WT-JEV MOI 10, 5 μM, titers at 12 hpi.

On to `OC(c1cc(C(F)(F)F)nc2c(C(F)(F)F)cccc12)C1CCCCN1` (centres unmarked) [Mefloquine], for which the “hit status after HTS and dose-dependent reconfirmation with eGFP-JEV” value (from here on “hit status”) in data set [1] is “potent inhibitor of JEV”.
In the case of `C#C[C@@]1(O)[C@H](O)[C@@H](CO)O[C@H]1n1ccc2c(N)ncnc21` [NITD008], the “effect on eGFP expression” value in data set [2] was “dose-dependent inhibitory effects”.
The term EC50 denotes the midpoint of the concentration-response curve. In general, CC50 refers to the concentration that lowers cell viability or growth by half. For the molecule `CCCCCCCCCCCCCCCC[N+](C)(C)C` [cetrimonium bromide], in data set [3], the 50% effective concentration (EC50) amounted to 2.23 µM. Further, the “hit status” value in data set [1] was “newly discovered inhibitors of JEV”. The molecule also displayed a CC50 at 48 h in data set [4] of 7.88 µM. In addition, the “viral RNA copies” value in data set [5] is reported as “decreased in a dose-dependent manner”.
As for `CCCCCCCCCCCCCCCC[n+]1ccccc1` [cetylpyridinium chlorid, cetylpyridinium chloride], in data set [1], the “hit status” value was “newly discovered inhibitors of JEV”. In data set [5], the “viral RNA copies” value is reported as “decreased in a dose-dependent manner”.
With `Oc1c(Cl)cc(Cl)c(Cl)c1Cc1c(O)c(Cl)cc(Cl)c1Cl` [hexachlorophene], in data set [3], the “SI (selective index, ratio of CC50 to EC50)” value was more than 10 and the concentration for a half-maximal effect (EC50) was 0.421 µM. Also, in data set [1], the “hit status” value is “newly discovered inhibitors of JEV”. In data set [4], this molecule gave a CC50 at 48 h of 10 µM.
As for `CCOC(=O)C1=C(C)NC(C)=C(C(=O)OCC)C1c1ccccc1/C=C/C(=O)OC(C)(C)C` [lacidipine], in data set [1], the “hit status” value was “identified as hits”.
Regarding `NC(=O)N1CCC(CC(=O)N2CCC([C@H]3c4ncc(Br)cc4CCc4cc(Cl)cc(Br)c43)CC2)CC1` [lonafarnib], in data set [6], the “effect on virus propagation, compound added pre-infection (-1 to 0 h)” value was “no effect on virus propagation”; the “reduction in viral titer, compound added during viral infection (0-1 h)” value came out at 60%; the “viral titers, compound added post infection (1, 2, 4, 6, 8 h)” value is given as “significantly reduced”. Besides, in data set [3], the “SI (selective index, ratio of CC50 to EC50)” value is given as more than 10 and the concentration for a half-maximal effect (EC50) amounted to 0.982 µM. For the same molecule, the “hit status” value in data set [1] is given as “newly discovered inhibitors of JEV”. The same molecule showed a CC50 at 48 h in data set [4] of 11.4 µM. For the same molecule, the “viral RNA copies” value in data set [5] is given as “decreased in a dose-dependent manner”.
`COC(=O)C1=C(C)NC(C)=C(C(=O)OCCN2CCN(C(c3ccccc3)c3ccccc3)CC2)C1c1cccc([N+](=O)[O-])c1` (centres unmarked) [manidipine]: in data set [1], the “hit status” value is reported as “identified as hits”.
For the molecule `COc1c(C)c2c(c(O)c1C/C=C(\C)CCC(=O)O)C(=O)OC2` [mycophenolic acid], the “hit status” value in data set [1] is “identified as hits”.
On to `O=[N+]([O-])c1ccc(O)c2ncccc12` [nitroxoline], for which, in data set [3], the concentration giving a half-maximal response (EC50) came to 2.48 µM. The “hit status” value in data set [1] is listed as “newly discovered inhibitors of JEV”. Besides, it took 9.29 µM to reach half-maximal cytotoxicity in data set [4] (CC50 at 48 h). Also, the “viral RNA copies” value in data set [5] is given as “decreased in a dose-dependent manner”.
Take `CC[C@@H]1/C=C(\C)C[C@H](C)C[C@H](OC)[C@H]2O[C@@](O)(C(=O)C(=O)N3CCCC[C@H]3C(=O)O[C@H](/C(C)=C/[C@@H]3CC[C@H](Cl)[C@H](OC)C3)[C@H](C)[C@@H](O)CC1=O)[C@H](C)C[C@@H]2OC` [pimecrolimus]: the “hit status” value in data set [1] was “identified as hits”.
On to `CC(C)OC(=O)[C@H](C)N[P@](=O)(OC[C@H]1O[C@@H](n2ccc(=O)[nH]c2=O)[C@](C)(F)[C@@H]1O)Oc1ccccc1` [sofosbuvir], for which the “hit status” value in data set [1] was “active”.
